Measured values from publication PMC8067737, “Synthesis and Biological Evaluation of Coumarin-Linked 4-Anilinomethyl-1,2,3-Triazoles as Potent Inhibitors of Carbonic Anhydrases IX and XIII Involved in Tumorigenesis” (Metabolites, 2021).
Where two headings read alike, the source gives them in different places.

Legend:
hCA IX = hCA IX (Homo sapiens, UniProt Q16790); assay: CA catalyzed CO2 hydration, stopped flow assay, hCA IX; conditions: recombinant enzyme, stopped flow technique, mean from 3 different assays, errors ±5–10%
From the text: (§1) An SX.18V-R Applied Photophysics (Oxford, UK) stopped flow instrument has been used to assay the CA catalyzed CO2 hydration activity [26]. […] The inhibition constants were obtained by non-linear least squares methods using the Cheng-Prusoff equation, as reported earlier, and represent the mean from at least three different determinations.

hCA XIII = hCA XIII (Homo sapiens, UniProt Q8N1Q1); assay: CA catalyzed CO2 hydration, stopped flow assay, hCA XIII; conditions: Ki (nM) hCA XIII, recombinant enzyme; stopped flow technique; mean from 3 different assays, errors ±5–10%
Chain of hCA XIII (Q8N1Q1 whole entry): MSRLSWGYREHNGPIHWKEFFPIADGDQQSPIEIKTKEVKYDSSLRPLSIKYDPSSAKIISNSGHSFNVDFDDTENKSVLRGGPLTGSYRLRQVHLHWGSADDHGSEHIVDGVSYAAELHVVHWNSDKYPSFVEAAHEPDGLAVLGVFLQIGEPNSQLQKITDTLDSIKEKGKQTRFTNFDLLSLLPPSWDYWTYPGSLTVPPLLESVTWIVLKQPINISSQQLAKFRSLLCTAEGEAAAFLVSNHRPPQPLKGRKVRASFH
From the text: as §1

hCA I = hCA I (Homo sapiens, UniProt P00915); assay: CA catalyzed CO2 hydration, stopped flow assay, hCA I
Chain of hCA I (P00915 whole entry): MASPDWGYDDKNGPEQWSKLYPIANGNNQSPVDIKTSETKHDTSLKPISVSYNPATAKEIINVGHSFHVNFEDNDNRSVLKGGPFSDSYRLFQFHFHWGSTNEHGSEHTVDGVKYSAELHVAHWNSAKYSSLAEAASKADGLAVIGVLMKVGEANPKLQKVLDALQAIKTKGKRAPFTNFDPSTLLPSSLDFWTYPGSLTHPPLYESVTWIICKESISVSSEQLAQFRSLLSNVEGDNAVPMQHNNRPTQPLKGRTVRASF
From the text: as §1

hCA II = hCA II (Homo sapiens, UniProt P00918); assay: CA catalyzed CO2 hydration, stopped flow assay, hCA II
From the text: as §1

Row | melting point [°C] | Ki (hCA IX; Ki (nM) hCA IX) [nM] | Ki (hCA XIII) [nM] | Ki (hCA I) [µM] | Ki (hCA II) [µM] | Ki (hCA IX; read-out: Ki (nM) hCA IX) [nM] | Structure (SMILES)
1 | 150 to 152 | 48.4 | 92.6 | > 50 | > 50 | – | Cc1ccc(NCc2cn(-c3ccc4oc(=O)ccc4c3)nn2)cc1 [Compound 6a, 6-(4-((p-tolylamino)methyl)-1H-1,2,3-triazol-1-yl)-2H-chromen-2-one]
2 | 159 to 161 | 60.8 | 90.1 | > 50 | > 50 | – | O=c1ccc2cc(-n3cc(CNc4ccccc4)nn3)ccc2o1 [Compound 6b, 6-(4-((phenylamino)methyl)-1H-1,2,3-triazol-1-yl)-2H-chromen-2-one]
3 | 140 to 142 | 73.3 | 950 | > 50 | > 50 | – | COc1ccc(NCc2cn(-c3ccc4oc(=O)ccc4c3)nn2)cc1 [Compound 6c, 6-(4-(((4-methoxyphenyl)amino)methyl)-1H-1,2,3-triazol-1-yl)-2H-chromen-2-one]
4 | 136 to 138 | 152 | 898 | > 50 | > 50 | – | O=c1ccc2cc(-n3cc(CNc4ccc(Cl)cc4)nn3)ccc2o1 [Compound 6d, 6-(4-(((4-chlorophenyl)amino)methyl)-1H-1,2,3-triazol-1-yl)-2H-chromen-2-one]
5 | – | < 50 | 883 | > 50 | > 50 | 36.3 | O=c1ccc2cc(-n3cc(CNc4ccc(Br)cc4)nn3)ccc2o1 [Compound 6e, 6-(4-(((4-bromophenyl)amino)methyl)-1H-1,2,3-triazol-1-yl)-2H-chromen-2-one]
6 | 152 to 155 | 45 | 8150 | > 50 | > 50 | – | CC(C)c1ccc(NCc2cn(-c3ccc4oc(=O)ccc4c3)nn2)cc1 [Compound 6f, 6-(4-(((4-isopropylphenyl)amino)methyl)-1H-1,2,3-triazol-1-yl)-2H-chromen-2-one]
7 | 157 to 159 | 64.8 | 903 | > 50 | > 50 | – | Cc1cc(C)c(NCc2cn(-c3ccc4oc(=O)ccc4c3)nn2)c(C)c1 [Compound 6g, 6-(4-((mesitylamino)methyl)-1H-1,2,3-triazol-1-yl)-2H-chromen-2-one]
8 | 172 to 174 | 73 | 905 | > 50 | > 50 | – | O=c1ccc2cc(-n3cc(CNc4ccc(Oc5ccccc5)cc4)nn3)ccc2o1 [Compound 6h, 6-(4-(((4-phenoxyphenyl)amino)methyl)-1H-1,2,3-triazol-1-yl)-2H-chromen-2-one]
9 | 230 to 234 | 85.7 | 896 | > 50 | > 50 | – | O=c1ccc2cc(-n3cc(CNc4cccc([N+](=O)[O-])c4)nn3)ccc2o1 [Compound 6i, 6-(4-(((3-nitrophenyl)amino)methyl)-1H-1,2,3-triazol-1-yl)-2H-chromen-2-one]
10 | 133 to 136 | 305 | 91.8 | > 50 | > 50 | – | O=c1ccc2cc(-n3cc(CNc4cccc(Br)c4)nn3)ccc2o1 [Compound 6j, 6-(4-(((3-bromophenyl)amino)methyl)-1H-1,2,3-triazol-1-yl)-2H-chromen-2-one]
11 | 246 to 248 | 69.1 | 6430 | > 50 | > 50 | – | O=c1ccc2cc(-n3cc(CNc4cccc(C(F)(F)F)c4)nn3)ccc2o1 [Compound 6k]
12 | 210 to 212 | 86.1 | 840 | > 50 | > 50 | – | O=c1ccc2cc(-n3cc(CNc4ccc(F)cc4)nn3)ccc2o1 [Compound 6l, 6-(4-(((4-fluorophenyl)amino)methyl)-1H-1,2,3-triazol-1-yl)-2H-chromen-2-one]
13 | 220 to 223 | 80.1 | 795 | > 50 | > 50 | – | Cc1cccc(NCc2cn(-c3ccc4oc(=O)ccc4c3)nn2)c1 [Compound 6m, 6-(4-((m-tolylamino)methyl)-1H-1,2,3-triazol-1-yl)-2H-chromen-2-one]
14 | 191 to 194 | 89.3 | 703 | > 50 | > 50 | – | Cc1cc(C)cc(NCc2cn(-c3ccc4oc(=O)ccc4c3)nn2)c1 [Compound 6n, 6-(4-(((3,5-dimethylphenyl)amino)methyl)-1H-1,2,3-triazol-1-yl)-2H-chromen-2-one]
15 | 134 to 137 | 92.7 | 95.4 | > 50 | > 50 | – | O=c1ccc2cc(-n3cc(CNc4cccc(Cl)c4)nn3)ccc2o1 [Compound 6o, 6-(4-(((3-chlorophenyl)amino)methyl)-1H-1,2,3-triazol-1-yl)-2H-chromen-2-one]
16 | 165 to 167 | 574 | 594 | > 50 | > 50 | – | O=c1ccc2cc(-n3cc(CNc4ccccc4I)nn3)ccc2o1 [Compound 6p, 6-(4-(((2-iodophenyl)amino)methyl)-1H-1,2,3-triazol-1-yl)-2H-chromen-2-one]
17 | 213 to 215 | 96.4 | 96.7 | > 50 | > 50 | – | O=c1ccc2cc(-n3cc(CNc4ccc(Cl)cc4[N+](=O)[O-])nn3)ccc2o1 [Compound 6q, 6-(4-(((4-chloro-2-nitrophenyl)amino)methyl)-1H-1,2,3-triazol-1-yl)-2H-chromen-2-one]
18 | 220 to 222 | 462 | 550 | > 50 | > 50 | – | Cc1cccc(NCc2cn(-c3ccc4oc(=O)ccc4c3)nn2)c1C [Compound 6r, 6-(4-(((2,3-dimethylphenyl)amino)methyl)-1H-1,2,3-triazol-1-yl)-2H-chromen-2-one]
19 | 204 to 206 | 90.9 | 664 | > 50 | > 50 | – | O=c1ccc2cc(-n3cc(CNc4cc(F)cc(F)c4)nn3)ccc2o1 [Compound 6s, 6-(4-(((3,5-difluorophenyl)amino)methyl)-1H-1,2,3-triazol-1-yl)-2H-chromen-2-one]
20 | 230 to 232 | 643 | 6030 | > 50 | > 50 | – | O=c1ccc2cc(-n3cc(CNc4ccccc4F)nn3)ccc2o1 [Compound 6t, 6-(4-(((2-fluorophenyl)amino)methyl)-1H-1,2,3-triazol-1-yl)-2H-chromen-2-one]
